Experimental data published in US8414911B2, “Photochemical therapy to affect mechanical and/or chemical properties of body tissue” (The Regents of the University of California, priority 2006, dated 2013).
Entries after “also recorded” stand apart in the source; their conditions may differ.

Legend:
porcine sclera sections = test: Rheometric analysis of sclera sections (modulus pre- and post-treatment); details: photoinitiator alone, compared with photoinitiator plus PEGDM
Source text: The ability of initiator with or without crosslinking compounds to strengthen the sclera was initially evaluated using rheometric analysis of tissue sections. Sclera sections (8 mm diameter) were cut from porcine eyes and tested on a TA Instruments AR1000 rheometer (using a cleated parallel plate geometry) to quantify changes in modulus pre- and post-treatment. Two example photoinitiators were selected for initial evaluation.

[1] = test system: sclera of enucleated eyes; test: Ocular inflation model of myopia (enucleated eyes, elevated IOP 85 mmHg); set-up: species or system New Zealand White Rabbits; details: 0.3% soak 5 min, 10 mW/cm^2, 365 nm, 10 min anterior and 10 min posterior
Procedure: Stabilization of ocular shape is evaluated in vitro using pairs of enucleated eyes from young (˜1-2 weeks) New Zealand White Rabbits, one eye treated and the fellow eye as control. To mimic and accelerate aspects of the loading geometry present in vivo, the intact globes are mechanically tested by imposing an elevated intraocular pressure: a syringe connects the intraocular fluid to an elevated reservoir of Dulbecco's phosphate buffered saline (DPBS) while the exterior of the eye is immersed in DPBS at ambient pressure (FIG. 1).
The size and shape of the globes are simultaneously recorded from two orthogonal perspectives over time. To prepare eyes for the tests, the epithelium is optionally removed from the cornea with a cotton swab, and external fat is removed from the globe. (Note that permeation of the photoinitiator into tissue is examined separately below.) The eyes are then soaked in control (Dulbecco's PBS) or treatment solutions (e.g., 0.029 mM Eosin Y, 90 mM TEOA, in DPBS) for 5 min. After soaking, the eyes are patted dry to remove extra solution from the surface, and then irradiated for 5 min from the front and 5 min from the back with, e.g., 34 mW/cm^2 at 500±50 nm for Eosin Y/TEOA. […] Photographs taken every 10 minutes for approximately 24 hours are analyzed to quantify the extension of the cornea and sclera.

human and porcine sclera = human and porcine sclera in vitro; cited from earlier work
[2] = after use of topically applied proparacaine (Ehlers et al.); cited from earlier work

SMILES | increase of Young's modulus compared to untreated controls (human and porcine sclera) | also measured
CC(C)(O)C(=O)c1ccc(OCCO)cc1 [compound 12959, 2-hydroxy-1-[4-(2-hydroxyethoxy)phenyl]-2-methyl-1-propanone] | – | increases in modulus (porcine sclera sections): comparable increases in modulus; stabilization of eye shape / sclera under elevated IOP [1]: hold a steady shape; also recorded: stabilize the sclera
O=CC(O)CO (stereo not drawn) [glyceraldehyde] | 34% | –
Cc1cc2nc3c(=O)[nH]c(=O)nc-3n(C[C@H](O)[C@H](O)[C@H](O)CO)c2cc1C [riboflavin-UVA, riboflavin] | 29% | –
O=CCCCC=O [Glutaraldehyde] | 122% | –
CCCOc1ccc(C(=O)OCCN(CC)CC)cc1N [proparacaine] | – | increases in drug delivery to the aqueous [2]: 4 fold
